Experimental data from PubChem BioAssay (NCI).
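Briefly, cells in 96-well plates were exposed to five compound concentrations for 48 h, and endpoints were estimated by linear interpolation. TGI is the concentration that stops growth completely.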

Legend:
Assay in all cases: DTP human tumour cell line panel, 48 h
[1] = tested on: DU-145 prostate
[2] = tested on: PC-3 prostate
[3] = tested on: IGROV1 ovarian
[4] = tested on: RXF 393 renal
[5] = tested on: NCI-H522 lung
[6] = tested on: SK-MEL-28 melanoma
[7] = tested on: MOLT-4 leukemia
[8] = tested on: OVCAR-3 ovarian
[9] = tested on: SK-MEL-2 melanoma
[10] = tested on: HCT-15 colon
[11] = tested on: NCI-H226 lung
[12] = tested on: SNB-19 CNS
[13] = tested on: KM12 colon
[14] = tested on: MDA-MB-231 breast
[15] = tested on: EKVX NSCLC
[16] = tested on: OVCAR-5 ovarian
[17] = tested on: SF-539 CNS
[18] = tested on: SF-295 CNS
[19] = tested on: UO-31 renal
[20] = tested on: COLO 205 colon
[21] = tested on: MALME-3M melanoma
[22] = tested on: SK-MEL-5 melanoma
[23] = tested on: HCT-116 colon
[24] = tested on: SNB-75 CNS
[25] = tested on: HOP-62 NSCLC
[26] = tested on: OVCAR-4 ovarian
[27] = tested on: NCI/ADR-RES ovarian
[28] = tested on: U251 CNS
[29] = tested on: HCC-2998 colon
[30] = tested on: MCF7 breast
[31] = tested on: NCI-H23 lung
[32] = tested on: M14 melanoma
[33] = tested on: UACC-62 melanoma
[34] = tested on: BT-549 breast
[35] = tested on: ACHN renal
[36] = tested on: SN12C renal
[37] = tested on: CAKI-1 renal
[38] = tested on: OVCAR-8 ovarian
[39] = tested on: SW-620 colon
[40] = tested on: HS 578T breast
[41] = tested on: LOX IMVI melanoma
[42] = tested on: SK-OV-3 ovarian
[43] = tested on: UACC-257 melanoma
[44] = tested on: HL-60(TB) leukemia
[45] = tested on: CCRF-CEM leukemia
[46] = tested on: RPMI-8226 leukemia
[47] = tested on: K-562 leukemia
[48] = tested on: MDA-N
[49] = tested on: MDA-MB-435
[50] = tested on: 786-0 renal
[51] = tested on: SR leukemia
[52] = tested on: A549 NSCLC
[53] = tested on: TK-10 renal
[54] = tested on: HT29 colon
[55] = tested on: SF-268 CNS
[56] = tested on: T-47D breast
[57] = tested on: HOP-92 NSCLC
[58] = tested on: NCI-H460 lung
[59] = tested on: A498 renal

## CC1(C)CN=C(Nc2ccc(Cl)cc2)S1
[1]
  TGI: > 100 µM
[2]
  TGI: > 100 µM
[3]
  TGI: > 100 µM
[4]
  TGI: > 100 µM
[5]
  TGI: > 100 µM
[6]
  TGI: > 100 µM
[7]
  TGI: > 100 µM
[8]
  TGI: > 100 µM
[9]
  TGI: > 100 µM
[10]
  TGI: > 100 µM
[11]
  TGI: > 100 µM
[12]
  TGI: > 100 µM
[13]
  TGI: > 100 µM
[14]
  TGI: > 100 µM
[15]
  TGI: > 100 µM
[16]
  TGI: > 100 µM
[17]
  TGI: > 100 µM
[18]
  TGI: > 100 µM
[19]
  TGI: > 100 µM
[20]
  TGI: > 100 µM
[21]
  TGI: > 100 µM
[22]
  TGI: > 100 µM
[23]
  TGI: > 100 µM
[24]
  TGI: > 100 µM
[25]
  TGI: > 100 µM
[26]
  TGI: > 100 µM
[27]
  TGI: > 100 µM
[28]
  TGI: > 100 µM
[29]
  TGI: > 100 µM
[30]
  TGI: > 100 µM
[31]
  TGI: > 100 µM
[32]
  TGI: > 100 µM
[33]
  TGI: > 100 µM
[34]
  TGI: > 100 µM
[35]
  TGI: > 100 µM
[36]
  TGI: > 100 µM
[37]
  TGI: > 100 µM
[38]
  TGI: > 100 µM
[39]
  TGI: > 100 µM
[40]
  TGI: > 100 µM
[41]
  TGI: > 100 µM
[42]
  TGI: > 100 µM
[43]
  TGI: > 100 µM
[44]
  TGI: > 100 µM
[45]
  TGI: > 100 µM
[46]
  TGI: > 100 µM
[47]
  TGI: > 100 µM
[48]
  TGI: > 100 µM
[49]
  TGI: > 100 µM
[50]
  TGI: > 100 µM
[51]
  TGI: > 100 µM
[52]
  TGI: > 100 µM
[53]
  TGI: > 100 µM
[54]
  TGI: > 100 µM
[55]
  TGI: > 100 µM
[56]
  TGI: > 100 µM
[57]
  TGI: > 100 µM

## COc1ccc(N2C(=O)/C(=C\c3cccc(Oc4ccccc4)c3)S(=O)(=O)C2c2ccccc2)cc1 (stereo unspecified)
[1]
  TGI: > 100 µM
[2]
  TGI: > 100 µM
[4]
  TGI: > 100 µM
[5]
  TGI: 60.8 µM
[6]
  TGI: > 100 µM
[7]
  TGI: 22.5 µM
[8]
  TGI: > 100 µM
[9]
  TGI: > 100 µM
[10]
  TGI: > 100 µM
[11]
  TGI: > 100 µM
[12]
  TGI: > 100 µM
[13]
  TGI: > 100 µM
[14]
  TGI: > 100 µM
[15]
  TGI: 88 µM
[16]
  TGI: > 100 µM
[19]
  TGI: > 100 µM
[20]
  TGI: > 100 µM
[21]
  TGI: > 100 µM
[22]
  TGI: 98.7 µM
[23]
  TGI: > 100 µM
[25]
  TGI: > 100 µM
[26]
  TGI: > 100 µM
[58]
  TGI: > 100 µM
[27]
  TGI: 46.2 µM
[28]
  TGI: > 100 µM
[29]
  TGI: > 100 µM
[30]
  TGI: > 100 µM
[31]
  TGI: > 100 µM
[32]
  TGI: > 100 µM
[33]
  TGI: > 100 µM
[34]
  TGI: 91.7 µM
[35]
  TGI: > 100 µM
[36]
  TGI: > 100 µM
[37]
  TGI: > 100 µM
[39]
  TGI: > 100 µM
[41]
  TGI: > 100 µM
[43]
  TGI: > 100 µM
[44]
  TGI: 58.9 µM
[45]
  TGI: > 100 µM
[47]
  TGI: > 100 µM
[48]
  TGI: 87.6 µM
[49]
  TGI: > 100 µM
[50]
  TGI: 42.5 µM
[51]
  TGI: 59.3 µM
[52]
  TGI: > 100 µM
[53]
  TGI: > 100 µM
[59]
  TGI: > 100 µM
[56]
  TGI: > 100 µM
[57]
  TGI: > 100 µM
